In US20250145589A1, “PYRIDINE DERIVATIVE AND USE THEREOF” (SICHUAN HUIYU PHARMACEUTICAL CO., LTD., priority 2021, published 2025) one finds IC50 data, which are given here for 15 compounds.

Where two headings read alike, the source gives them in different places.

One assay concerns the target PI3Kδ (Homo sapiens (Human), UniProt O00329). Put plainly: Inhibition of PI3Kδ efficacy assay (ADP-Glo kinase assay). The class given is biochemical. The note with it: read-out: PI3Kδ inhibitory activity (IC50). In short, it runs like this:
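Luminescent ADP-Glo readout of PI3Kδ: after a 60 min RT reaction with PI/ATP substrate, ATP depletion (40 min) and ADP detection (40 min) steps followed. Compounds tested as eight five-fold serial dilutions; inhibition rates fitted to log(inhibitor) vs. response, variable slope, for IC50.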
A general note: ADP-Glo first removes unused ATP, then detects ADP through luciferase.

Assay [1] deals with MIA PaCa-2-AMGR drug-resistant cell line. As to the kind of experiment: MIA PaCa-2-AMGR drug-resistant cell proliferation inhibitory activity test. Particulars: 72 h, MIA PaCa-2-AMGR drug-resistant cells, 3 days incubation, CellTiter-Glo. The class given is cell-based. In short, it runs like this: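 MIA PaCa-2 line made resistant by stepwise AMG510 exposure up to 1 μM. Cells seeded at 4×10^3/well overnight, then treated with 8 concentrations (5-fold dilutions) for 3 days at 37° C, 5% CO2 in DMEM with 10% FBS + 2.5% horse serum. Viability by CellTiter-Glo luminescence; IC50 versus no-inhibitor control.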
A general note: In ATP-based viability assays light output follows the ATP content of the culture.

The next assay deals with KRAS^G12C-SOS1 (Homo sapiens (Human), UniProt P01116, G12C). As to the kind of experiment: HTRF KRAS G12C/SOS1 binding assay. Particulars: Table 5. In short, it runs like this: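 Compound was serially diluted five-fold over eight points, with a 2 mM DMSO stock. After anti-tag-Tb3+ and anti-tag-XL665 were added, plates were incubated 3 h at 4 °C and read by HTRF (ex 337 nm, em 620/665 nm ratio). IC50 values come from four-parameter variable-slope fits.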
Chain of KRAS^G12C-SOS1 (P01116-2 other isoform, or with tags, fused parts or gaps G12C): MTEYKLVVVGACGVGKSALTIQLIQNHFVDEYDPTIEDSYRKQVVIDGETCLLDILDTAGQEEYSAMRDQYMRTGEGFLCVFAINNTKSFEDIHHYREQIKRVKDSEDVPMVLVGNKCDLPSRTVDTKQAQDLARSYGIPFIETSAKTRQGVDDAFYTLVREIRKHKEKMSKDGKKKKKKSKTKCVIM
A general note: TR-FRET usually uses a lanthanide donor and a delayed reading to cut background.

Another assay concerns the target PI3Kα (Homo sapiens (Human), UniProt P42336). Put plainly: Inhibition of PI3Kα efficacy assay (ADP-Glo kinase assay). Type of assay: biochemical. Particulars: read-out: PI3Kα inhibitory activity (IC50). In short, it runs like this: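 ADP-Glo luminescent detection of ADP from PI3Kα acting on PI substrate with ATP, 60 min at RT; compounds in 8-point five-fold serial dilution from 2 mM DMSO stock. IC50 from four-parameter variable-slope fit.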

The subject of assay [2] is MIA PaCa-2 cells (KRAS G12C mutant). As to the kind of experiment: MIA PaCa-2 cell anti-proliferation (CellTiter-Glo). The class given is cell-based. Particulars: Homo sapiens, 72 h; MIA Paca-2 cells, 3 days, Table 7; read-out: MIA PaCa-2 (IC50). In short, it runs like this:
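Viable-cell luminescence (CellTiter-Glo, ≥30 min at 25 °C) measured after a 3-day, 37 °C exposure to compounds at 9 points, 4-fold spaced, in DMEM containing 10% FBS plus 2.5% horse serum. IC50 derived versus no-inhibitor wells.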

By IC50 is commonly meant the concentration at which inhibition is half-maximal.

Chain of PI3Kα (P42336 whole entry): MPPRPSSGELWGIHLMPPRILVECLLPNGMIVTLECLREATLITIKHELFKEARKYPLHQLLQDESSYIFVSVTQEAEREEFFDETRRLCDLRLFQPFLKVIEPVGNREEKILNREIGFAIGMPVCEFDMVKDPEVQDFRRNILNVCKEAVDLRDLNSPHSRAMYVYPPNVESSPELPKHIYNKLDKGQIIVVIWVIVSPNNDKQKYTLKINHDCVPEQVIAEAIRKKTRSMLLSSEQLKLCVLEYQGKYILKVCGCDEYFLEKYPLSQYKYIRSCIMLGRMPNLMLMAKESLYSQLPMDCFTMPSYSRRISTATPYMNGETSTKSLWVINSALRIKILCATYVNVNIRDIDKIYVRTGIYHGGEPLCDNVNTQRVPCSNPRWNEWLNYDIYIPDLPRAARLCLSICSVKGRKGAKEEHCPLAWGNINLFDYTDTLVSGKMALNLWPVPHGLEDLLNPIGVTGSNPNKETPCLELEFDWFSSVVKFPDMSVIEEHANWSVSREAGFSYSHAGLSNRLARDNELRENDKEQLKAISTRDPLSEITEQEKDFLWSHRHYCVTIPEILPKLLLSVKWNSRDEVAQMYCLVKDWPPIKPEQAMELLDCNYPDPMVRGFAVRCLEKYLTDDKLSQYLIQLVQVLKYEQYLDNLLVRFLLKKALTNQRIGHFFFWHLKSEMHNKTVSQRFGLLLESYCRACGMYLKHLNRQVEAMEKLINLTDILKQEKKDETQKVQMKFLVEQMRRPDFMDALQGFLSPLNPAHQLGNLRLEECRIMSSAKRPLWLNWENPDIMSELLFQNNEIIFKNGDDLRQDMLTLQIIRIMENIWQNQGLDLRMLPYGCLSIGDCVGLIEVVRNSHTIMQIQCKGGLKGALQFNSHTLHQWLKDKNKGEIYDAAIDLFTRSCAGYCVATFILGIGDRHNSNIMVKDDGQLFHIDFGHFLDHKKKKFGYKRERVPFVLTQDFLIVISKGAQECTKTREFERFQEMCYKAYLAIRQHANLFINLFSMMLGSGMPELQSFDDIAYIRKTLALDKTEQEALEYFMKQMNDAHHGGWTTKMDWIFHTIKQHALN
Chain of PI3Kα (P27986 whole entry partner): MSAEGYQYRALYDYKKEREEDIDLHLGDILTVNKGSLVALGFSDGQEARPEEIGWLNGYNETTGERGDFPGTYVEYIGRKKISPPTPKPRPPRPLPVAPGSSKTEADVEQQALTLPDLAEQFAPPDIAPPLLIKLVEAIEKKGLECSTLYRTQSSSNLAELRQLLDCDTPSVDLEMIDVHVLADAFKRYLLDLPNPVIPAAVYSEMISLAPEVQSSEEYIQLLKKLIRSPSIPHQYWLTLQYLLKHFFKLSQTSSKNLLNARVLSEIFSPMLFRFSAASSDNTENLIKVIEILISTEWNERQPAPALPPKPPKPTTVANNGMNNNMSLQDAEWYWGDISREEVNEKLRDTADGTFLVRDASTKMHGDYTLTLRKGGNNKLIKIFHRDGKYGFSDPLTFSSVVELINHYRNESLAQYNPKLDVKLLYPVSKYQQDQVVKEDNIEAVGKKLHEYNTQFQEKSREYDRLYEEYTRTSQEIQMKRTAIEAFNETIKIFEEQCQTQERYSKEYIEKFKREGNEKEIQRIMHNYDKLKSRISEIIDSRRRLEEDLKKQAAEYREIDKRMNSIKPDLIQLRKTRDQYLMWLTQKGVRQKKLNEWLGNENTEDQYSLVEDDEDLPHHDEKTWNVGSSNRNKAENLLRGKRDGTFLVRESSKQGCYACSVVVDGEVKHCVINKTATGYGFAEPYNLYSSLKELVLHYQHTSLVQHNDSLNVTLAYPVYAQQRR
Chain of PI3Kδ (O00329 whole entry): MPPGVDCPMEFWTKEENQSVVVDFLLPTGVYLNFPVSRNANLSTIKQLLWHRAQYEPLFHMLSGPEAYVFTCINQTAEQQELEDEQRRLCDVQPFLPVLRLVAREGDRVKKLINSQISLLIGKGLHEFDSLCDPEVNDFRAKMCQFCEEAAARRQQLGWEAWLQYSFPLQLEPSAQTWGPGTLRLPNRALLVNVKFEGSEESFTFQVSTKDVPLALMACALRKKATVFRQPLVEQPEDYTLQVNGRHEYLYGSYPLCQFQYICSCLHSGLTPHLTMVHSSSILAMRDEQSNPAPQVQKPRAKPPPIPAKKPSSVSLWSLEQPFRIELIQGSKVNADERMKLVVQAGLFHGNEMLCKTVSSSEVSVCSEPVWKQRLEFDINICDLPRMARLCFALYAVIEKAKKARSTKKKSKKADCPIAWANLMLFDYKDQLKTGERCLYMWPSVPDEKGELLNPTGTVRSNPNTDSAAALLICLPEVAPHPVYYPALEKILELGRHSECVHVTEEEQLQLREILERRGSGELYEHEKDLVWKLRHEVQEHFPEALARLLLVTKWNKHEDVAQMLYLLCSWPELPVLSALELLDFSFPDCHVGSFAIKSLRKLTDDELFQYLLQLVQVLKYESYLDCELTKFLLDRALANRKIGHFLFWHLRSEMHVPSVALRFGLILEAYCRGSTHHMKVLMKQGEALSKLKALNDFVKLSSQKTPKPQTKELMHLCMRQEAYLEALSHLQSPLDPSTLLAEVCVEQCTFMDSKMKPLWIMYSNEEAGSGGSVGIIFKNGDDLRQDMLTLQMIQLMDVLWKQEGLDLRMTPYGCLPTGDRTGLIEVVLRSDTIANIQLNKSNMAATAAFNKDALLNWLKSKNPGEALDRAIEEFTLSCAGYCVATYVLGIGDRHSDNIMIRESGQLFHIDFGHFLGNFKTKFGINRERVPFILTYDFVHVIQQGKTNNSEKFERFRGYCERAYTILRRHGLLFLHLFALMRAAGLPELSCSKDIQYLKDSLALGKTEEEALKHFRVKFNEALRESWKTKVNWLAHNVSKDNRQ
Chain of PI3Kδ (P27986 whole entry partner): as the sequence (P27986 whole entry partner) above

`COc1ncc(-c2ccc3ncnc(N4CC5CCC(C4)N5C(=O)/C=C/C(C)=O)c3c2)cc1NS(=O)(=O)c1c(F)cc(F)cc1F` [Example 155]: the IC50 on PI3Kδ (Table 4) is 53.1 nM; in assay [1], 112 nM; on KRAS^G12C-SOS1 it was 462 nM; on PI3Kα (Table 4), 0.3 nM; in assay [2], 77.6 nM.

Regarding `COc1ncc(-c2ccc3ncnc(C4=CCN(C(=O)/C=C/C(C)=O)CC4)c3c2)cc1NS(=O)(=O)c1sc(C)nc1C` [Example 199, (E)-N-(2-methoxy-5-(4-(1-(4-oxopent-2-enoyl)-1,2,3,6-tetrahydropyridin-4-yl)quinazolin-6-yl)pyridin-3-yl)-2,4-dimethylthiazole-5-sulfonamide], the IC50 on PI3Kδ (Table 4) is 12 nM; in assay [1] it was 19.1 nM; on KRAS^G12C-SOS1 it was 176 nM; at PI3Kα (Table 4) it was 1.5 nM; in assay [2], 41.1 nM.

As for `COc1ncc(-c2ccc3ncnc(N4CCN(C(=O)/C=C/C(C)=O)CC4)c3c2)cc1NS(=O)(=O)c1ccccc1F` [Example 91, (E)-2-fluoro-N-(2-methoxy-5-(4-(4-(4-oxopent-2-enoyl)piperazin-1-yl)quinazolin-6-yl)pyridin-3-yl)benzenesulfonamide], the half-maximal inhibitory concentration (IC50) at PI3Kδ (Table 2) was 61.5 nM; in assay [1], 79.8 nM; on KRAS^G12C-SOS1, 173 nM; on PI3Kα (Table 2), 2.6 nM; in assay [2] it was 30.7 nM.

For `COc1ncc(-c2ccc3ncnc(N4C5CCC4CN(C(=O)/C=C/C(C)=O)C5)c3c2)cc1NS(=O)(=O)c1ccc(F)cc1F` [Example 144, 2,4-difluoro-N-(2-methoxy-5-(4-(3-((E)-4-oxopent-2-enoyl)-3,8-diazabicyclo[3.2.1]octan-8-yl)quinazolin-6-yl)pyridin-3-yl)benzenesulfonamide], the IC50 on PI3Kδ (Table 4) was found to be 13.4 nM; in assay [1] it was 56.6 nM; at KRAS^G12C-SOS1, 390 nM; at PI3Kα (Table 4), 3.2 nM; in assay [2], 58.7 nM.

On to `COc1ncc(-c2ccc3ncnc(N4CCN(C(=O)/C=C/C(C)=O)CC4)c3c2)cc1NS(=O)(=O)c1cccc(F)c1F` [Example 90, (E)-2,3-difluoro-N-(2-methoxy-5-(4-(4-(4-oxopent-2-enoyl)piperazin-1-yl)quinazolin-6-yl)pyridin-3-yl)benzenesulfonamide], for which the IC50 on PI3Kδ (Table 2) was 23.7 nM; in assay [1], 106 nM; on PI3Kα (Table 2) it was 4 nM; in assay [2] it was 51.9 nM.

For `COc1ncc(-c2ccc3ncnc(N4CCN(C(=O)/C=C/C(C)=O)CC4)c3c2)cc1NS(=O)(=O)c1ccc(F)cc1F` [Example 6, (E)-2,4-difluoro-N-(2-methoxy-5-(4-(4-(4-oxopent-2-enoyl)piperazin-1-yl)quinazoline-6-yl)pyridin-3-yl)benzenesulfonamide], the IC50 amounted to 10.9 nM on PI3Kδ (Table 1), 49.2 nM in assay [1], 323 nM on KRAS^G12C-SOS1 and 17.1 nM in assay [2].

On to `COc1ncc(-c2ccc3ncnc(N4CCN(C5CN(C(=O)/C=C/C(C)=O)C5)CC4)c3c2)cc1NS(=O)(=O)c1ccc(F)cc1F` [Example 56, (E)-2,4-difluoro-N-(2-methoxy-5-(4-(4-(1-(4-oxopent-2-enoyl)azetidin-3-yl)piperazin-1-yl)quinazolin-6-yl)pyridin-3-yl)benzenesulfon-amide], for which the IC50 on PI3Kδ (Table 2) is 37.2 nM; in assay [1], 116 nM; at KRAS^G12C-SOS1, 471 nM; on PI3Kα (Table 2) it was 4.4 nM.

For the compound `COc1ncc(-c2ccc3ncnc(N4CCC5(CC=CC5=O)CC4)c3c2)cc1NS(=O)(=O)c1ccc(F)cc1F` [Example 70, 2,4-difluoro-N-(2-methoxy-5-(4-(1-oxo-8-azaspiro[4,5]dec-2-en-8-yl)quinazolin-6-yl)pyridin-3-yl)benzenesulfonamide], the IC50 is 35 nM on PI3Kδ (Table 2), 139 nM in assay [1], 8.8 nM on PI3Kα (Table 2) and 40.1 nM in assay [2].

Take `COC(=O)c1ncc(-c2ccc3ncnc(N4CCN(C(=O)/C=C/C(C)=O)CC4)c3c2)cc1NS(=O)(=O)c1ccc(F)cc1F` [Example 181, methyl (E)-3-((2,4-difluoro-phenyl)sulfonamido)-5-(4-(4-(4-oxopent-2-enoyl)piperazin-1-yl)quinazolin-6-yl)picolinate]: the IC50 was 20.4 nM on PI3Kδ (Table 4), 118 nM in assay [1], 0.73 nM at PI3Kα (Table 4) and 56.2 nM in assay [2].

Take `[2H]C([2H])([2H])Oc1ncc(-c2ccc3ncnc(N4CCN(C(=O)/C=C/C(C)=O)CC4)c3c2)cc1NS(=O)(=O)c1ccc(F)cc1F` [Example 191, (E)-2,4-difluoro-N-(2-(methoxy-d3)-5-(4-(4-(4-oxopent-2-enoyl)piperazin-1-yl)quinazolin-6-yl)pyridin-3-yl)benzene-sulfonamide]: the IC50 at PI3Kδ (Table 4) came to 16.7 nM; in assay [1] it was 40.8 nM; at KRAS^G12C-SOS1, 143 nM; in assay [2] it was 54.2 nM.

As to `C=CC(=O)N1CCN(c2ncnc3ccc(-c4cnc(OC)c(NS(=O)(=O)c5ccc(F)cc5F)c4)cc23)[C@@H](C)C1` [Example 7, (S)—N-(5-(4-(4-acryloyl-2-methylpiperazin-1-yl)quinazolin-6-yl)-2-methoxypyridin-3-yl)-2,4-difluorobenzenesulfonamide], the IC50 on PI3Kδ (Table 1) amounted to 12 nM; in assay [1] it was 222 nM; on PI3Kα (Table 1), 1.4 nM; in assay [2], 32.3 nM.

Turning to `CC(=O)/C=C/C(=O)N1CCN(c2ncnc3ccc(-c4cnc(OCC(F)(F)F)c(NS(=O)(=O)c5ccc(F)cc5F)c4)cc23)CC1` [Example 159, (E)-2,4-difluoro-N-(5-(4-(4-(4-oxopent-2-enoyl)piperazin-1-yl)quinazolin-6-yl)-2-(2,2,2-trifluoroethoxy)pyridin-3-yl)benzenesulfonamide], the IC50 on PI3Kδ (Table 4) was 91.7 nM; in assay [1] it was 226 nM; at PI3Kα (Table 4), 11.8 nM; in assay [2], 357 nM.

For `COc1ncc(-c2ccc3ncnc(N4CCN(C(=O)/C=C/n5ccnn5)CC4)c3c2)cc1NS(=O)(=O)c1ccc(F)cc1F` [Example 10, (E)-N-(5-(4-(4-(3-(1H-1,2,3-triazol-1-yl)acryloyl)piperazin-1-yl)quinazolin-6-yl)-2-methoxypyridin-3-yl)-2,4-difluorobenzenesulfonamide], the IC50 stood at 16.7 nM at PI3Kδ (Table 1), 226 nM in assay [1], 0.44 nM on PI3Kα (Table 1) and 83.2 nM in assay [2].

With `COc1ncc(-c2ccc3ncnc(N4CCN(C(=O)/C=C/C(C)=O)CC4)c3c2)cc1NS(=O)(=O)c1ccc(C#N)cc1F` [Example 123, (E)-4-cyano-2-fluoro-N-(2-methoxy-5-(4-(4-(4-oxopent-2-enoyl)piperazin-1-yl)quinazolin-6-yl)pyridin-3-yl)benzenesulfonamide], the IC50 at PI3Kδ (Table 2) came to 31.4 nM; in assay [1], 328 nM; on PI3Kα (Table 2), 9.1 nM; in assay [2] it was 84.1 nM.

As for `COc1ncc(-c2ccc3ncnc(N4CCN(C(=O)/C=C/C(C)=O)CC4)c3c2)cc1NS(C)(=O)=O` [Example 170, (E)-N-(2-methoxy-5-(4-(4-(4-oxopent-2-enoyl)piperazin-1-yl)quinazolin-6-yl)pyridin-3-yl)methane-sulfonamide], the IC50 on PI3Kδ (Table 4) was 17 nM; in assay [1], 183 nM; on PI3Kα (Table 4), 7 nM; in assay [2], 118 nM.
